Source: patent publication US9345776B2, “Biodegradable polymers with sulfenamide bonds for drug delivery applications” (The University of Iowa Research Foundation, priority 2011, dated 2016)

Columns and labels:
[1] = pKa; type: physicochemical; conditions: inferred from partial protonation by benzoic acid in CD3OD
[2] = Solubility in D2O; type: physicochemical
[3] = Degradation of molecule C with acid in CD3OD, monitored by 1H NMR; type: physicochemical
Experimental: […] Molecule C (103.5 mg, 436 μmol) was dissolved in 0.94 mL of CD3OD and 0.5 mL (55.1 mg, 232 μmol) was transferred to a NMR tube. […] […] This reaction was too rapid to monitor the kinetics.

[4] = Degradation of molecule C under neutral conditions, monitored by 1H NMR; type: physicochemical
Experimental: Kinetics of the degradation of molecule C under neutral conditions (FIG. 2a). Molecule C (363.2 mg, 1.53 mmol) was dissolved in 3.3 mL of CD3OD, from which 0.5 mL (55.1 mg, 232 μmol) was transferred to a NMR tube. After adding an additional 0.5 mL of CD3OD, ^1H NMR spectra were recorded at room temperature every few days. After 33 days, 15% of molecule C degraded to yield N-benzylmethylamine.
This procedure was also followed but the NMR tube was added to a heat bath at 40° C.
For the kinetics in C6D6 at room temperature, a solution of molecule C (33.9 mg, 143 μmol) in 0.7 mL of C6D6 was added to a NMR tube and ^1H NMR spectra were recorded every few days for 30 days.

[5] = pH=7.5, 37° C.; cited from earlier work

solubility in D2O [2]	degradation of molecule C ([3]; five equivalents of benzoic acid, 4 min)	degradation of molecule C ([3]; two molar equivalents of p-toluenesulfonic acid, within four minutes)	degradation of molecule C ([3]; two molar equivalents of trifluoroacetic acid, within four minutes)	1H NMR spectrum of molecule C (stability in aprotic solvent) ([4]; C6D6, after 30 days)	degradation of molecule C ([4]; C6D6, room temperature, 30 days)	degradation of molecule C ([4]; CD3OD, 40° C., 33 days)	degradation of molecule C ([4]; CD3OD, room temperature, 33 days, no acid)	Compound	pKa of the protonated sulfenamide [1]	half-life of the decomposition [5]
not soluble	51%	> 90%	> 90%	unchanged	< 3%	27%	15%	CCCCCCSNCCc1ccccc1 [Molecule C, N-Benzylmethyl-hexanesulfenamide]	approximately the same pKa as benzoic acid	–
–	–	–	–	–	–	–	–	C=CCS[S+]([O-])CC=C (stereo not shown) [allicin]	–	approximately 2 days
